Results published in patent US9216999B2, “Substituted pyrrolo[2,3-h][1,6]naphthyridines and compositions thereof as JAK inhibitors” (priority 2011, dated 2015).
Where two headings read alike, the source gives them in different places.

What was measured:
Format in all cases: biochemical
Tyk2 = Tyk2 (Homo sapiens (Human), UniProt P29597); experiment: Enzyme assay (Assay Example^a 1), Tyk2; settings: ATP 100 μM
JAK1 = JAK1 (Homo sapiens (Human), UniProt P23458); experiment: Enzyme assay (Assay Example^a 1), JAK1; settings: ATP 100 μM
JAK3 = JAK3 (Homo sapiens (Human), UniProt P52333); experiment: Enzyme assay (Assay Example^a 1), JAK3
JAK3, sequence (P52333 whole entry): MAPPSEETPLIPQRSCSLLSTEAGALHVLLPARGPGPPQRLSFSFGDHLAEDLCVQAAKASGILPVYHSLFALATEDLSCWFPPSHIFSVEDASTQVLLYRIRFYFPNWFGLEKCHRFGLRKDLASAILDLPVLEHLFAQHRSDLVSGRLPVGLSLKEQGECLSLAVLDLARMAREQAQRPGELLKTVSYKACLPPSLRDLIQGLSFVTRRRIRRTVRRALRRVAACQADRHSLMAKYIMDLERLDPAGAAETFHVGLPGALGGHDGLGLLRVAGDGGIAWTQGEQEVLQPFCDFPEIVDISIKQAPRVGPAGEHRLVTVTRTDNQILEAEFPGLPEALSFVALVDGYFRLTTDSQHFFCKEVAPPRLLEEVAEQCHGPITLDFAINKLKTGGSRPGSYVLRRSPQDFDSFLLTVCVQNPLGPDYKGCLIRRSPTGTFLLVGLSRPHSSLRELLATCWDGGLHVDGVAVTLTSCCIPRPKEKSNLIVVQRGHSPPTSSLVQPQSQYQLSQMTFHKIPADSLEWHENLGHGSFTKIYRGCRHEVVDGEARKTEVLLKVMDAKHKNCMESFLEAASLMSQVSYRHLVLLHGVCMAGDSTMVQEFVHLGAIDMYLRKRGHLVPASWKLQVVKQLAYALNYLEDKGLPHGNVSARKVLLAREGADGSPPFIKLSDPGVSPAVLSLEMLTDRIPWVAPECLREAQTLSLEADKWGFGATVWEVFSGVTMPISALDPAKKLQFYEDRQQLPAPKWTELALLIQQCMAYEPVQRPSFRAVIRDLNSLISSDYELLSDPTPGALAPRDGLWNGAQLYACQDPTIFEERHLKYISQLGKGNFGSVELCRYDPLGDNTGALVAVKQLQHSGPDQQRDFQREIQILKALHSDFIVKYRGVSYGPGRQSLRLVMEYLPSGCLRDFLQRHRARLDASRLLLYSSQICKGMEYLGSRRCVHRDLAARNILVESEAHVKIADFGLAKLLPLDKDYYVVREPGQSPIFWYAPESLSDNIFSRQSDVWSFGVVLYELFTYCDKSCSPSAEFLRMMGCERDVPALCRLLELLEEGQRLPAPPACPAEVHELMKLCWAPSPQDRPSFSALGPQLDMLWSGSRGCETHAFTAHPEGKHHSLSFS

Tyk2, sequence (P29597 whole entry): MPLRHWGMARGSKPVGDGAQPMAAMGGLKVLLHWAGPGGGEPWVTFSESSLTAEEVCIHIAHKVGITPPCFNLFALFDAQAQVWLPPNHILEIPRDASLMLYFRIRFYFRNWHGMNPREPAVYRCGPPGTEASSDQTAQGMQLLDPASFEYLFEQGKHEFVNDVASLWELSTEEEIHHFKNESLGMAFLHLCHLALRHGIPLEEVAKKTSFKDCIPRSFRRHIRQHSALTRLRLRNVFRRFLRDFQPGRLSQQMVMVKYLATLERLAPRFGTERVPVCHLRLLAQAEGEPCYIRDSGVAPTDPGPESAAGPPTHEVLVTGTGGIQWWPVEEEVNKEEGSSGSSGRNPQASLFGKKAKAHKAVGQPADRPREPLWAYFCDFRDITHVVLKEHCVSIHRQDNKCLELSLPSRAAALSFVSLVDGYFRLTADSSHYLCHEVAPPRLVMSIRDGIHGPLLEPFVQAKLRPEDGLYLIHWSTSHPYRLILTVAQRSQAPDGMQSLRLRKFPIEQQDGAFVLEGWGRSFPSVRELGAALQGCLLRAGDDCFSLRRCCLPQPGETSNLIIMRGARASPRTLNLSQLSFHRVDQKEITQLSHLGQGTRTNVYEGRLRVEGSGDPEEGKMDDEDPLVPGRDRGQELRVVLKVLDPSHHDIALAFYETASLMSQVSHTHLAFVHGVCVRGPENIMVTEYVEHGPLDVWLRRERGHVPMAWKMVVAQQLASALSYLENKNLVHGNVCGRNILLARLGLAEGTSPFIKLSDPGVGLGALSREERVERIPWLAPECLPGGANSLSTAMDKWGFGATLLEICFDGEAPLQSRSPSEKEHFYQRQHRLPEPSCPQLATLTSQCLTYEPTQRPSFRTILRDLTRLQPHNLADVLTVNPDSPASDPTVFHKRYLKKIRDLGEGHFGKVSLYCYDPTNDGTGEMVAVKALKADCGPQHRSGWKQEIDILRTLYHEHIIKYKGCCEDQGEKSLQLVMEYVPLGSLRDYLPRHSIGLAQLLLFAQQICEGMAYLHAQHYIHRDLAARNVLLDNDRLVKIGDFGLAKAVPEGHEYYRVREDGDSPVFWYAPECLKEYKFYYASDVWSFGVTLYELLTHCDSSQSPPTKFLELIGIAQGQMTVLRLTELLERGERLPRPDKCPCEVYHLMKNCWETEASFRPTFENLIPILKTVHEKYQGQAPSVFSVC

## OC(CN[C@H]1CC[C@H](c2nnn3cnc4[nH]ccc4c23)CC1)c1ccccc1 (mixture of isomers) [202b, 2-{[trans-4-(7H-pyrrolo[3,2-e][1,2,3]triazolo[1,5-c]pyrimidin-1-yl)cyclohexyl]amino}-1-phenylethanol]
Tyk2; Table^a 154
  IC50: 0.26 µM

## O=C(OCc1ccccc1)N1CCCC(c2ncn3cnc4[nH]ccc4c23)C1 (racemic) [compound 3]
JAK1
  IC50: 0.057 µM
JAK3; ATP 100 μM
  IC50: 1.4 µM

## CC(C)(C)OC(=O)N1CCCC(c2nnn3cnc4[nH]ccc4c23)C1 (racemic) [compound 13]
Tyk2; Table^a 154
  IC50: > 1 µM

## c1ccc(CN2CCCC(c3nnn4cnc5[nH]ccc5c34)C2)cc1 (racemic) [compound 16]
JAK1; Table^a 154
  IC50: 0.28 µM
JAK3; ATP 100 μM, Table^a 154
  IC50: 5.3 µM

## c1cncc(CN2CCCC(c3nnn4cnc5[nH]ccc5c34)C2)c1 (racemic) [compound 18]
Tyk2; Table^a 154
  IC50: > 1 µM

## O=C(Nc1nncs1)N1CCCC(c2nnn3cnc4[nH]ccc4c23)C1 (racemic) [compound 20]
JAK1; Table^a 154
  IC50: 0.019 µM
Tyk2; Table^a 154
  IC50: 0.42 µM

## FC(F)(F)c1ccc(CN2CCCC(c3nnn4cnc5[nH]ccc5c34)C2)cc1 (racemic) [compound 23]
JAK1; Table^a 154
  IC50: 0.55 µM

## OC(CNC[C@H]1CC[C@H](c2nnn3cnc4[nH]ccc4c23)CC1)c1ccccc1 (mixture of isomers) [compound 186, 2-({[trans-4-(7H-pyrrolo[3,2-e][1,2,3]triazolo[1,5-c]pyrimidin-1-yl)cyclohexyl]methyl}amino)-1-phenylethanol]
Tyk2; Table^a 154
  IC50: 0.044 µM

## O=C(OCc1ccccc1)N1CCC(c2nnn3cnc4[nH]ccc4c23)C1 (racemic) [compound 211, Benzyl 3-(7H-pyrrolo[3,2-e][1,2,3]triazolo[1,5-c]pyrimidin-1-yl)pyrrolidine-1-carboxylate]
JAK1; Table^a 154
  IC50: 0.12 µM

## CC(c1ccccc1)N1CCC(c2nnn3cnc4[nH]ccc4c23)CC1 (racemic) [compound 245, 1-[1-(1-phenylethyl)piperidin-4-yl]-7H-pyrrolo[3,2-e][1,2,3]triazolo[1,5-c]pyrimidine]
Tyk2
  IC50: > 1 µM
JAK3; ATP 100 μM
  IC50: > 1 µM

## N#Cc1ccc(N[C@H]2CC[C@@H](c3nnn4cnc5[nH]ccc5c34)CC2)cc1 [134a]
JAK3
  IC50: 1 µM

## N#Cc1ccc(N[C@H]2CC[C@H](c3nnn4cnc5[nH]ccc5c34)CC2)cc1 [134b]
JAK3
  IC50: 0.66 µM

## Clc1ccc(CN[C@H]2CC[C@@H](c3nnn4cnc5[nH]ccc5c34)CC2)cc1 [197a, cis-N-(4-chlorobenzyl)-4-(7H-pyrrolo[3,2-e][1,2,3]triazolo[1,5-c]pyrimidin-1-yl)cyclohexanamine]
JAK1; Table^a 154
  IC50: 0.016 µM
Tyk2; Table^a 154
  IC50: 0.15 µM
JAK3; ATP 100 μM, Table^a 154
  IC50: > 1 µM

## Clc1ccc(CN[C@H]2CC[C@H](c3nnn4cnc5[nH]ccc5c34)CC2)cc1 [197b, trans-N-(4-chlorobenzyl)-4-(7H-pyrrolo[3,2-e][1,2,3]triazolo[1,5-c]pyrimidin-1-yl)cyclohexanamine]
JAK1; Table^a 154
  IC50: 0.0054 µM
Tyk2; Table^a 154
  IC50: 0.11 µM
JAK3; ATP 100 μM, Table^a 154
  IC50: 0.52 µM

## O[C@H](CN[C@H]1CC[C@H](c2nnn3cnc4[nH]ccc4c23)CC1)c1ccccc1 [203b, (S)-2-{[trans-4-(7H-pyrrolo[3,2-e][1,2,3]triazolo[1,5-c]pyrimidin-1-yl)cyclohexyl]amino}-1-phenylethanol]
Tyk2; Table^a 154
  IC50: 0.33 µM

## O[C@@H](CN[C@H]1CC[C@H](c2nnn3cnc4[nH]ccc4c23)CC1)c1ccccc1 [204b, (R)-2-{[trans-4-(7H-pyrrolo[3,2-e][1,2,3]triazolo[1,5-c]pyrimidin-1-yl)cyclohexyl]amino)-1-phenylethanol]
Tyk2; Table^a 154
  IC50: 0.35 µM

## FC(F)CN[C@H]1CC[C@H](c2nnn3cnc4[nH]ccc4c23)CC1 [399b, trans-N-(2,2-difluoroethyl)-4-(7H-pyrrolo[3,2-e][1,2,3]triazolo[1,5-c]pyrimidin-1-yl)cyclohexanamine]
JAK1
  IC50: 0.0075 µM
Tyk2
  IC50: 0.2 µM
JAK3; ATP 100 μM
  IC50: > 1 µM

## FC(F)(F)C(N[C@H]1CC[C@H](c2nnn3cnc4[nH]ccc4c23)CC1)C(F)(F)F [400b, trans-N-(1,1,1,3,3,3-hexafluoropropan-2-yl)-4-(7H-pyrrolo[3,2-e][1,2,3]triazolo[1,5-c]pyrimidin-1-yl)cyclohexanamine]
JAK1
  IC50: 0.042 µM
Tyk2
  IC50: 0.84 µM
JAK3; ATP 100 μM
  IC50: > 1 µM

## Cc1nc(C2CCCCC2)c2c3cc[nH]c3ncn12 [compound 1]
JAK1
  IC50: 0.23 µM
Tyk2
  IC50: 0.59 µM
JAK3
  IC50: 1.4 µM

## CC1CCN(C(=O)CC#N)CC1c1nnn2cnc3[nH]ccc3c12 (centres unmarked) [compound 12]
JAK1; Table^a 154
  IC50: 0.021 µM
Tyk2; Table^a 154
  IC50: 0.91 µM

## FC(F)(F)CN1CCC(c2nnn3cnc4[nH]ccc4c23)CC1 [compound 25]
JAK3
  IC50: 0.44 µM

## O=C(Nc1nncs1)N1CCC(c2nnn3cnc4[nH]ccc4c23)CC1 [compound 30]
JAK3; ATP 100 μM, Table^a 154
  IC50: 0.48 µM

## Cc1cc(NC(=O)N2CCC(c3nnn4cnc5[nH]ccc5c34)CC2)sn1 [compound 31]
JAK3; ATP 100 μM, Table^a 154
  IC50: > 1 µM

## N#Cc1cccc(CN2CCC(c3nnn4cnc5[nH]ccc5c34)CC2)c1 [compound 35]
JAK3; ATP 100 μM, Table^a 154
  IC50: 0.26 µM

## FC(F)(F)c1cccc(CN2CCC(c3nnn4cnc5[nH]ccc5c34)CC2)c1 [compound 39]
JAK3; ATP 100 μM, Table^a 154
  IC50: 0.53 µM

## FC(F)(F)c1cc(CN2CCC(c3nnn4cnc5[nH]ccc5c34)CC2)cc(C(F)(F)F)c1 [compound 47]
JAK1; Table^a 154
  IC50: 0.78 µM
Tyk2; Table^a 154
  IC50: > 1 µM

## FC(F)(F)c1ccc(CN2CCC(c3nnn4cnc5[nH]ccc5c34)CC2)cn1 [compound 52]
JAK3
  IC50: 0.041 µM

## Clc1ccc(CN2CCC(c3nnn4cnc5[nH]ccc5c34)CC2)cc1 [compound 54]
JAK3
  IC50: 0.071 µM

## CC(C)(C)OC(=O)N[C@H]1CC[C@H](c2nnn3cnc4[nH]ccc4c23)CC1 [compound 59]
Tyk2; Table^a 154
  IC50: > 1 µM
JAK3; ATP 100 μM, Table^a 154
  IC50: > 1 µM

## N[C@H]1CC[C@H](c2nnn3cnc4[nH]ccc4c23)CC1 [compound 61]
Tyk2; Table^a 154
  IC50: 0.44 µM

## COC[C@H]1CC[C@H](c2nnn3cnc4[nH]ccc4c23)CC1 [compound 62]
Tyk2; Table^a 154
  IC50: 0.14 µM
JAK3; ATP 100 μM, Table^a 154
  IC50: 0.47 µM

## CO[C@H]1CC[C@H](c2nnn3cnc4[nH]ccc4c23)CC1 [compound 63]
JAK1; Table^a 154
  IC50: 0.011 µM

## c1cc2c(ncn3nnc(C4CC5CCC4C5)c23)[nH]1 (centres unmarked) [compound 65]
Tyk2; Table^a 154
  IC50: 0.025 µM
JAK3; ATP 100 μM, Table^a 154
  IC50: 0.15 µM

## CC(=O)SC[C@H]1CC[C@H](c2nnn3cnc4[nH]ccc4c23)CC1 [compound 71]
JAK3
  IC50: 0.055 µM

## CC(=O)OC[C@H]1CC[C@H](c2nnn3cnc4[nH]ccc4c23)CC1 [compound 72]
JAK3; ATP 100 μM, Table^a 154
  IC50: 0.048 µM

## ClC[C@H]1CC[C@H](c2nnn3cnc4[nH]ccc4c23)CC1 [compound 75]
JAK3; ATP 100 μM, Table^a 154
  IC50: 0.032 µM

## O[C@H]1CC[C@H](c2nnn3cnc4[nH]ccc4c23)CC1 [compound 81]
JAK3
  IC50: 0.64 µM

## O[C@H]1CC[C@@H](c2nnn3cnc4[nH]ccc4c23)CC1 [compound 83]
JAK3
  IC50: 0.28 µM

## O=C(OCc1ccccc1)N1CCC(c2[nH]c(=S)n3cnc4[nH]ccc4c23)CC1 [compound 85]
JAK3; ATP 100 μM, Table^a 154
  IC50: > 1 µM

## FC(F)(F)c1ccc(CN2CCC(c3[nH]c(=S)n4cnc5[nH]ccc5c34)CC2)cc1 [compound 86]
JAK1; Table^a 154
  IC50: 0.02 µM

## c1cc2c(ncn3nnc([C@H]4CC[C@H](CN5CCOCC5)CC4)c23)[nH]1 [compound 91]
JAK3; ATP 100 μM, Table^a 154
  IC50: 0.64 µM

## N#Cc1ccc(NC[C@H]2CC[C@H](c3nnn4cnc5[nH]ccc5c34)CC2)cc1 [compound 92]
JAK3; ATP 100 μM, Table^a 154
  IC50: > 1 µM

## N#Cc1ccc(CNC[C@H]2CC[C@H](c3nnn4cnc5[nH]ccc5c34)CC2)cc1 [compound 93]
JAK3; ATP 100 μM, Table^a 154
  IC50: 0.31 µM

## Cc1cc(C#N)ccc1NC[C@H]1CC[C@H](c2nnn3cnc4[nH]ccc4c23)CC1 [compound 103]
JAK3
  IC50: > 1 µM

## Fc1ccc(CNC[C@H]2CC[C@H](c3nnn4cnc5[nH]ccc5c34)CC2)cc1C(F)(F)F [compound 112]
JAK1; Table^a 154
  IC50: 0.0049 µM

## Fc1ccc(NC[C@H]2CC[C@H](c3nnn4cnc5[nH]ccc5c34)CC2)c(C(F)(F)F)c1 [compound 117]
JAK1; Table^a 154
  IC50: 0.039 µM
JAK3
  IC50: > 1 µM

## N#Cc1ccc(NC2CCC(c3nnn4cnc5[nH]ccc5c34)CC2)cc1 (centres unmarked) [compound 121]
JAK3
  IC50: 0.46 µM

## c1cc2c(ncn3nnc(C4CCC(N5CCOCC5)CC4)c23)[nH]1 (centres unmarked) [compound 124]
JAK3; ATP 100 μM, Table^a 154
  IC50: > 1 µM

## c1cc2c(ncn3nnc(C4CCC(NCCN5CCOCC5)CC4)c23)[nH]1 (centres unmarked) [compound 126]
JAK3; ATP 100 μM, Table^a 154
  IC50: > 1 µM

## Cc1cc(OC(F)(F)F)ccc1NC1CCC(c2nnn3cnc4[nH]ccc4c23)CC1 (centres unmarked) [compound 133]
JAK1; Table^a 154
  IC50: 0.12 µM
Tyk2; Table^a 154
  IC50: > 1 µM
JAK3
  IC50: > 1 µM

## Fc1ccccc1CN1CCC(c2nnn3cnc4[nH]ccc4c23)CC1 [compound 142]
JAK3; ATP 100 μM, Table^a 154
  IC50: 0.36 µM

## c1coc(CN2CCC(c3nnn4cnc5[nH]ccc5c34)CC2)c1 [compound 146]
JAK3; ATP 100 μM, Table^a 154
  IC50: 0.31 µM

## c1cc(CN2CCC(c3nnn4cnc5[nH]ccc5c34)CC2)[nH]n1 [compound 151]
JAK3; ATP 100 μM, Table^a 154
  IC50: 0.63 µM

## c1cc2c(ncn3nnc(C4CCN(Cc5csnn5)CC4)c23)[nH]1 [compound 152]
JAK3; ATP 100 μM, Table^a 154
  IC50: 0.032 µM

## Brc1ncc(CN2CCC(c3nnn4cnc5[nH]ccc5c34)CC2)s1 [compound 153]
JAK3; ATP 100 μM, Table^a 154
  IC50: 0.015 µM

## Fc1ccc(CN2CCC(c3nnn4cnc5[nH]ccc5c34)CC2)cc1C(F)(F)F [compound 154]
JAK3; ATP 100 μM, Table^a 154
  IC50: 0.62 µM

## c1ccc2sc(CN3CCC(c4nnn5cnc6[nH]ccc6c45)CC3)nc2c1 [compound 232, 2-{[4-(7H-pyrrolo[3,2-e][1,2,3]triazolo[1,5-c]pyrimidin-1-yl)piperidin-1-yl]methyl}benzo[d]thiazole]
JAK3; ATP 100 μM
  IC50: > 1 µM

## O[C@@H](CNC[C@H]1CC[C@H](c2nnn3cnc4[nH]ccc4c23)CC1)c1ccccc1 [compound 276, (R)-2-({[trans-4-(7H-pyrrolo[3,2-e][1,2,3]triazolo[1,5-c]pyrimidin-1-yl)cyclohexyl]methyl}amino)-1-phenylethanol]
Tyk2
  IC50: 0.032 µM

## O[C@H](CNC[C@H]1CC[C@H](c2nnn3cnc4[nH]ccc4c23)CC1)c1ccccc1 [compound 277, (S)-2-({[trans-4-(7H-pyrrolo[3,2-e][1,2,3]triazolo[1,5-c]pyrimidin-1-yl)cyclohexyl]methyl}amino)-1-phenylethanol]
Tyk2
  IC50: 0.05 µM

## O=C1NOC[C@H]1NC[C@H]1CC[C@H](c2nnn3cnc4[nH]ccc4c23)CC1 [compound 288, (R)-4-({[trans-4-(7H-pyrrolo[3,2-e][1,2,3]triazolo[1,5-c]pyrimidin-1-yl)cyclohexyl]methyl}amino)isoxazolidin-3-one]
JAK1
  IC50: 0.046 µM
Tyk2
  IC50: 0.37 µM
